Measurements from a flash point compilation (Sun et al. 2020).
Several values for one entry are separate records, joined by “and”; a condition that tells them apart may be missing. Equal values may be shown once. Where a name gives a salt, the structure may show the parent alone.

| SMILES | flash point [°C] |
| --- | --- |
| Cc1cccc(C)c1C [1,2,3-trimethylbenzene] | 51 |
| Cc1cc(C)cc(C)c1 [1,3,5-trimethylbenzene] | 44 |
| CNCCO [2-(methylamino)ethanol] | 72 |
| C1CCCCC1 [cyclohexane] | -18 |
| CCCCCCCCCCCC [dodecane] | 71 |
| CCCCCC [hexane] | -26 |
| Cc1ccccc1 [toluene] | 7 |
| CCCCCCCCCCC=O [undecanal] | 95 |
| C=COC(=O)CCC [vinylbutanoate] | 20 |
| C=CC1CCCCC1 [vinylcyclohexane] | 21 |
| C=COC(=O)CC [vinylpropanoate] | 6 |

Remark: another data set of the same source

| SMILES | flash point [°C] |
| --- | --- |
| Cc1cccc(C)c1C [1,2,3-trimethylbenzene] | 44.00 |
| Cc1cc(C)cc(C)c1 [1,3,5-trimethylbenzene] | 50.00 |
| CNCCO [2-(methylamino)ethanol] | 74.00 |
| C1CCCCC1 [cyclohexane] | -20.00 |
| CCCCCCCCCCCC [dodecane] | 74.00 |
| CCCCCC [hexane] | -23.00 |
| Cc1ccccc1 [toluene] | 4.00 |

Remark: another data set of the same source

| SMILES | flash point |
| --- | --- |
| ClCC(Cl)(Cl)Cl [1,1,1,2-tetrachloroethane] | 47 °C |
| C=C(Cl)Cl [1,1-dichloroethylene] | -25 °C |
| CCC(O)CO (configuration not stated) [1,2-butanediol] | 93 °C |
| Clc1ccccc1Cl [1,2-dichlorobenzene] | 67 °C |
| CCC(Cl)CCl (configuration not stated) [1,2-dichlorobutane] | 26 °C |
| CC1CCCCC1C (configuration not stated) [1,2-dimethylcyclohexane] | 15 °C |
| SCCS [1,2-ethanedithiol] | 50 °C |
| CC(N)CN (configuration not stated) [1,2-propanediamine] | 33 °C |
| NCCCN [1,3-propanediamine] | 48 °C |
| OCCCO [1,3-propanediol] | 131 °C |
| OCCCCO [1,4-butanediol] | 135 °C |
| N#CCCCCC#N [1,4-dicyanobutane] | 159 °C |
| CC1CCC(C)CC1 (configuration not stated) [1,4-dimethylcyclohexane] | 10 °C |
| C=CCCC=C [1,5-hexadiene] | -27 °C |
| OCCCCCO [1,5-pentanediol] | 136 °C |
| SCCCCCS [1,5-pentanedithiol] | 95 °C |
| CCCCCBr [1-bromopentane] | 31 °C |
| CCc1ccc(Cl)cc1 [1-chloro-4-ethylbenzene] | 64 °C |
| CCCCCCCCl [1-chloroheptane] | 41 °C |
| CC(=O)C1CC1 [1-cyclopropylethanone] | 13 °C |
| CCCCCCCF [1-fluoroheptane] | 13 °C |
| CCCCCCI [1-iodohexane] | 67 °C |
| CCCCOC [1-methoxybutane] | -10 °C |
| CN1CCCC1=O [1-methyl-2-pyrrolidinone] | 86 °C |

| SMILES | flash point |
| --- | --- |
| Cc1cccc2ccccc12 [1-methylnaphthalene] | 82 °C |
| Cn1cccc1 [1-methylpyrrole] | 15 °C |
| CN1CCCC1 [1-methylpyrrolidine] | -18 °C |
| CCCCCCCCS [1-octanethiol] | 69 °C |
| C=CCCCCCC [1-octene] | 21 °C |
| CC(C)(Cl)Cl [2,2-dichloropropane] | -5 °C |
| CC(C)(C)C#N [2,2-dimethylpropanenitrile] | 4 °C |
| Cc1cc(C)nc(C)c1 [2,4,6-trimethylpyridine] | 57 °C |
| CC(=O)CC(C)=O [2,4-pentanedione] | 34 °C |
| COC1C=CC(OC)O1 (configuration not stated) [2,5-dimethoxy-2,5-dihydrofuran] | 51 °C |
| CC(O)CCC(C)O (configuration not stated) [2,5-hexanediol] | 101 °C |
| C1=CC2C=CC1C2 [2,5-norbornadiene] | -11 °C |
| CC(C)(N)CO [2-amino-2-methyl-1-propanol] | 67 °C |
| COC(CBr)OC [2-bromo-1,1-dimethoxyethane] | 53 °C |
| CC=CC#N [2-butenenitrile] | 20 °C |
| CC(C)(C)Cl [2-chloro-2-methylpropane] | -27 °C |
| O=C1C=CCCC1 [2-cyclohexen-1-one] | 34 °C |
| CN(C)CCO [2-dimethylaminoethanol] | 40 °C |
| CCCCC(C=O)CC (configuration not stated) [2-ethylhexanal] | 46 °C |
| C=CC(=O)OCC(CC)CCCC (configuration not stated) [2-ethylhexyl acrylate] | 86 °C |
| CCC1=NCCO1 [2-ethyloxazoline] | 29 °C |
| CCC(C)I (configuration not stated) [2-iodobutane] | 23 °C |
| CC(C)OCCO [2-isopropoxyethanol] | 43 °C |
| CC(C)C=O [2-methyl-1-propanal] | -25 °C |

| SMILES | flash point |
| --- | --- |
| CCC(C)(C)O [2-methyl-2-butanol] | 21 °C |
| CNCCO [2-methylaminoethanol] | 71 °C |
| CC1CCCCC1O (configuration not stated) [2-methylcyclohexanol] | 58 °C |
| Cc1ccc2ccccc2c1 [2-methylnaphthalene] | 97 °C |
| CC1CCCO1 (configuration not stated) [2-methyltetrahydrofuran] | -11 °C |
| Cc1cccs1 [2-methylthiophene] | 7 °C |
| CCCCCCCC(C)=O [2-nonanone] | 69 °C |
| CCCCCCC(C)=O [2-octanone] | 62 °C |
| CCCC(C)O (configuration not stated) [2-pentanol] | 40 °C |
| CC(C)(C)c1ccco1 [2-t-butylfuran] | 7 °C |
| CCCCCCCCCC(C)O (configuration not stated) [2-undecanol] | 107 °C |
| CCCCCCCCCC(C)=O [2-undecanone] | 89 °C |
| CC(C)(C)CC(=O)O [3,3-dimethylbutanoic acid] | 88 °C |
| C=CCC#N [3-butenenitrile] | 21 °C |
| CCCCOCCCN [3-butoxypropylamine] | 63 °C |
| C=CCI [3-iodo-1-propene] | 18 °C |
| C=CC(C)C [3-methyl-1-butene] | -57 °C |
| CC(C)C(C)S (configuration not stated) [3-methyl-2-butanethiol] | 19 °C |
| CC(=O)C(C)C [3-methyl-2-butanone] | 6 °C |
| CC=C(C)CC [3-methyl-2-pentene] | -6 °C |
| CCC(C)C(CC)CC (configuration not stated) [3-methyl-4-ethylhexane] | 24 °C |
| CC1CCCC(O)C1 (configuration not stated) [3-methylcyclohexanol] | 62 °C |
| CCCCC(C)CC (configuration not stated) [3-methylheptane] | 7 °C |
| CCCC(C)CC (configuration not stated) [3-methylhexane] | -3 °C |

| SMILES | flash point |
| --- | --- |
| Cc1cccnc1 [3-methylpyridine] | 38 °C |
| Cc1ccsc1 [3-methylthiophene] | 11 °C |
| Cc1cccnc1 [3-picoline] | 40 °C |
| Oc1ccc(Cl)cc1 [4-chlorophenol] | 115 °C |
| Cc1ccc(Cl)cc1 [4-chlorotoluene] | 49 °C |
| CC(C)CCCO [4-methyl-1-pentanol] | 51 °C |
| C=CCC(C)C [4-methyl-1-pentene] | -31 °C |
| CSCCC=O [4-thiapentanal] | 58 °C |
| C=CC1CC=CCC1 (configuration not stated) [4-vinyl-1-cyclohexene] | 16 °C |
| C#CCCCCl [5-chloro-1-pentyne] | 15 °C |
| CC=C1CC2C=CC1C2 (configuration not stated) [5-ethylidene-2-norbornene] | 38 °C |
| C=CCCCCO [5-hexen-1-ol] | 47 °C |
| CC(=O)CCC(C)C [5-methyl-2-hexanone] | 36 °C |
| CCC(=O)CC(C)CC (configuration not stated) [5-methyl-3-heptanone] | 43 °C |
| C=CCCCCCCCCO [9-decen-1-ol] | 119 °C |
| CCN(C)CC [N,N-diethylmethylamine] | -23 °C |
| CCNC(C)C [N-ethylisopropylamine] | 16 °C |
| CC=NO [acetaldoxime] | 36 °C |
| CC(=O)OC(C)=O [acetic anhydride] | 49 °C |
| CC(=O)c1ccccc1 [acetophenone] | 82 °C |
| C=CC#N [acrylonitrile] | -1 °C |
| C=CCOC(C)=O [allyl acetate] | 6 °C |
| C=C(C)c1ccccc1 [alpha-methylstyrene] | 45 °C |
| O=Cc1ccccc1 [benzaldehyde] | 62 °C |

| SMILES | flash point |
| --- | --- |
| c1ccc2occc2c1 [benzofuran] | 56 °C |
| OCc1ccccc1 [benzyl alcohol] | 93 °C |
| O=C(OCc1ccccc1)c1ccccc1 [benzyl benzoate] | 147 °C |
| N#CCc1ccccc1 [benzyl cyanide] | 101 °C |
| CCCCOCC [butyl ethyl ether] | -5 °C |
| CCCCN=C=O [butyl isocyanate] | 29 °C |
| CCCC=O [butyraldehyde] | -6 °C |
| CCCC(=O)OC(=O)CCC [butyric anhydride] | 87 °C |
| Clc1ccccc1 [chlorobenzene] | 27 °C |
| O=CC=Cc1ccccc1 [cinnamaldehyde] | 71 °C |
| C[C@H]1CC[C@@H](C)CC1 [cis-1,4-dimethylcyclohexane] | 6 °C |
| C/C=C/C(=O)O [crotonic acid] | 88 °C |
| C1CCC1 [cyclobutane] | -65 °C |
| NC1CCC1 [cyclobutylamine] | -4 °C |
| OC1CCCCCC1 [cycloheptanol] | 71 °C |
| O=C1CCCCCC1 [cycloheptanone] | 55 °C |
| NC1CCCCC1 [cyclohexylamine] | 28 °C |
| OC1CCCC1 [cyclopentanol] | 51 °C |
| C1CC1 [cyclopropane] | -95 °C |
| CC(C)(C)SC(C)(C)C [di-t-butyl sulfide] | 48 °C |
| CCSSCC [diethyl disulfide] | 40 °C |
| CCOC(=O)/C=C/C(=O)OCC [diethyl fumarate] | 91 °C |
| CCNCC [diethylamine] | -26 °C and -23 °C |
